*1 amine or outer side, *2 acyl side, *3 side chain or, on linkers, in order; H or OH if unused. Where a SMILES comes first, the peptide text is derived from it. Side-chain parts run from the residue outwards. [ ]: non-standard residue; d: D form. The star is where a group is joined. Ethylenediamine = C(CN[*:2])N[*:1]; Hyp = O=C(O)[C@@H]1C[C@@H](O)CN1; Phg = N[C@H](C(=O)O)c1ccccc1; CO = O=C([*:1])[*:2]; Bn = c1ccc(C*)cc1
What was measured:
[1] = biological target: wild-type hSSTR2 stably expressed in HEK293 cells (human) (UniProt P30874)
[2] = biological target: wild-type hSSTR5 stably expressed in HEK293 cells (human) (UniProt P35346)
[3] = biological target: wild-type hSSTR3 stably expressed in HEK293 cells (human) (UniProt P32745)
[4] = biological target: T1, SSTR2 (Homo sapiens, UniProt P30874); assay: SSTR2 phosphorylation in HEK293 transfected cells (phosphosite-specific antibodies); type: cell-based; parameters: expressed in transfected cells; conditions: 10 or 1 μM, 10 min at 37° C.
Procedure: (A) Schematic representation of the human SSTR2 receptor indicating all potential phosphate acceptor sites within the carboxyl-terminal tail. Epitopes of the phosphosite-specific antibodies are marked (-P). […] The levels of phosphorylated SSTR2 receptor were then determined using the phosphosite-specific anti-pS341/pS343, pT353/T354, pT356/T359 antibodies. […] Blots shown are representative of three independent experiments. The positions of molecular mass markers are indicated on the left (in kDa).

[5] = tested on: NT-3 cell line spheroids; assay: Cytotoxic activity on NT-3 cell line spheroids; type: cell-based, human; conditions: 2.56 μM, 18 days
Procedure: NT-3 well-differentiated pancreatic neuroendocrine (PanNET) cell line (32) is an in-vitro model for pancreatic tumours.
Said cells were cultured in RPMI 1640 Medium GlutaMAX™ with 10% FBS, 1% Penicillin/Streptomycin, 20ng/ml EGF (AF-100-15, Peprotech), 10 ng/ml FGF (100-18B, Peprotech).
3D spheroids were generated by seeding 2000 cells/well in a 96-well ULA plate (Corning). Four replicates for each condition were seeded.
The spheroid formation required 4 days before starting the treatment.
The treatment was repeated every 3 days by replacing 50% of the medium (to avoid spheroid removal) with new medium containing 2× desired drug concentration.
Spheroid morphology was monitored every day during the treatment and pictures were taken on day 0, 4, 7, 11, 14, 18. Day 0 corresponds to the first day of treatment. Pictures were taken from the same well every time point.

[6] = biological target: SSTR3-tGFP (Homo sapiens, UniProt P32745); assay: Internalization of SSTR3 in U2OS transfected cells; type: cell-based; parameters: expressed in transfected cells; host or cells: U2OS
Source text: (§1) HEK293 cells transfected with human SSTRs, and U20S cells transfected with human GFP-tagged receptors (SSTR2-tGFP, SSTR3-tGFP, SSTR5-tGFP).

[7] = biological target: SSTR2-tGFP (Homo sapiens, UniProt P30874); assay: Internalization of SSTR2 in U2OS transfected cells; type: cell-based; parameters: expressed in transfected cells; host or cells: U2OS
Source text: as §1

[8] = biological target: T1, SSTR2; assay: cell-based; parameters: expressed in transfected cells; host or cells: HEK293 co-expressing GIRK2-GFP
Source text: (§3) Therefore, G protein-signaling mediated by SSTR agonists was studied using a GIRK-based fluorescence membrane potential assay both in HEK293 cells transfected with hSSTR3, and in AtT20 wild-type as well as hSSTR3-transfected cells.

[9] = biological target: T2, SSTR5 (Homo sapiens, UniProt P35346)
Source text: as §3

[10] = biological target: T3, SSTR3 (Homo sapiens, UniProt P32745); assay: GIRK-based fluorescence membrane potential assay, HEK293-GIRK2-GFP-HA-hSST3
Source text: The concentrations used are indicated. […] Data points represent mean±S.E.M.
as §3

[11] = biological target: SSTR5-tGFP (Homo sapiens, UniProt P35346); assay: Internalization of SSTR5 in U2OS transfected cells; type: cell-based; parameters: expressed in transfected cells; host or cells: U2OS
Source text: as §1

[12] = tested on: opioid receptors; assay: single dose binding assays on opioid receptors; conditions: single dose 10^−5 M
[13] = biological target: T2, SSTR5; assay: SSTR5 phosphorylation in HEK293 transfected cells (anti-pT333); type: cell-based; parameters: expressed in transfected cells; conditions: 10 min at 37° C.
Source text: FIG. 9—Agonist-selective SSTR5 phosphorylation in HEK293 transfected cells. (A) Schematic representation of the human SSTR5 receptor indicating all potential phosphate acceptor site within the carboxyl-terminal tail. Epitope of the phosphosite-specific antibodies are marked (-P) . . . […] (C) Blots were subsequently stripped and reprobed with anti-HA antibody to confirm equal loading of the gels. Blots shown are representative of three independent experiments. The positions of molecular mass markers are indicated on the left (in kDa).
(§2) Finally, the SSTR5 pT333 phosphosite was only partially affected by all tested compounds, with Pasireotide showing the most pronounced effect (FIG. 9B, C).

[14] = tested on: Clinically Non-Functioning Pituitary Adenoma; conditions: Pasireotide LAR, NFPA patients; cited from earlier work
[15] = biological target: T3, SSTR3; assay: SSTR3 phosphorylation in HEK293 transfected cells (phosphosite-specific antibodies); type: cell-based; parameters: expressed in transfected cells; conditions: 10^−12 to 10^−5 M, 10 min at 37° C.
Procedure: The levels of phosphorylated SST3 receptor were then determined using the phosphosite-specific anti-pS337/pT341 or anti-pT348.
as §2

[16] = tested on: NFPAs in MENX (homozygous mutant) rats; conditions: female and male rats; cited from earlier work

SSTR2-tGFP, sequence (P30874 whole entry): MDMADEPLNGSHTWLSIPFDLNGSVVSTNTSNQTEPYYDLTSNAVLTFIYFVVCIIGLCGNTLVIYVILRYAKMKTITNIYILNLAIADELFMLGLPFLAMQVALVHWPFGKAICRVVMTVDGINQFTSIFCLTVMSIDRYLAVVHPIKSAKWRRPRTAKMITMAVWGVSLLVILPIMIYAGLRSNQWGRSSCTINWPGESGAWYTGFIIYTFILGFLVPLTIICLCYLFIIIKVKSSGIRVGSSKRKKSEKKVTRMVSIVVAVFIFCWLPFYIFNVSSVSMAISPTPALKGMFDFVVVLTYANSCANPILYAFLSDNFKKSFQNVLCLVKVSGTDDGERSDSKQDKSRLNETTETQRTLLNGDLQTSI
T1 sequence (P30874 whole entry): as above
SSTR3-tGFP, sequence (P32745 whole entry): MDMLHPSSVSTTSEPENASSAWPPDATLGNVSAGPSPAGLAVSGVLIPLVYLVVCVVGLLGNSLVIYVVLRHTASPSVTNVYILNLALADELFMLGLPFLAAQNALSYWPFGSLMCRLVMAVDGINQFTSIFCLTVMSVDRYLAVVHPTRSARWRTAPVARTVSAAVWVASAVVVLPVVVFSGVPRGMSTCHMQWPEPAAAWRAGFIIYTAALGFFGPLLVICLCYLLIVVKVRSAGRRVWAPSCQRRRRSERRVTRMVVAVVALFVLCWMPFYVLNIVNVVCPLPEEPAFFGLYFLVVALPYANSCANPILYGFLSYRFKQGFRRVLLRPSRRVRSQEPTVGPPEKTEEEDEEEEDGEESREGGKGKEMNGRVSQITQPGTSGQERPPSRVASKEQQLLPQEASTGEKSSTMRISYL
SSTR5-tGFP, sequence (P35346 whole entry): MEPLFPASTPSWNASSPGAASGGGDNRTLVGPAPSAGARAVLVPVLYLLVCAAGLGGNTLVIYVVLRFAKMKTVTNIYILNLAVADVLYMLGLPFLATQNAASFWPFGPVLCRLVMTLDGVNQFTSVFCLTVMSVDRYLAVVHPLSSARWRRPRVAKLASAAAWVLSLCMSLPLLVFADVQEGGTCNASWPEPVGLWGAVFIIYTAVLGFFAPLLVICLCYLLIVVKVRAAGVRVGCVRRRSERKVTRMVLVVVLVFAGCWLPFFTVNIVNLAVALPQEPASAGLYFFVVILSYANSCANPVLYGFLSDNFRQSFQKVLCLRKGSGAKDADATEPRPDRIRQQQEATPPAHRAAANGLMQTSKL
T2 sequence (P35346 whole entry): as above
T3 sequence (P32745 whole entry): as the sequence (P32745 whole entry) above

Compound activity (EC50 nM), GIRK membrane potential assay [1] [nM] | Compound | phosphorylation of SSTR2 (pS341/pS343, pT353/T354, pT356/T359) [4] | spheroid morphology at the highest concentration [5] | Mean of internalized fluorescence, SSTR3 ([6]; 1 μM) [AU] | Mean of internalized fluorescence, SSTR3 ([6]; 10 μM) [AU] | Mean of internalized fluorescence, SSTR2 ([7]; 1 μM) [AU] | Mean of internalized fluorescence, SSTR2 ([7]; 10 μM) [AU] | further results
4 | Octreotide (peptide) |  |  |  |  |  |  | 
60 | Pasireotide (peptide) |  |  |  |  |  |  | Compound activity (EC50 nM), GIRK membrane potential assay [2]: 16.5 nM; Compound activity (EC50 nM), GIRK membrane potential assay [3]: 63 nM
 | C[C@@H](O)[C@@H]1NC(=O)[C@H](CCCCN)NC(=O)[C@@H](Cc2c[nH]c3ccccc23)NC(=O)[C@H](Cc2ccccc2)NC(=O)[C@@H](NC(=O)[C@H](N)Cc2ccccc2)CSSC[C@@H](C(=O)N[C@H](CO)[C@@H](C)O)NC1=O [Octreotide] | full phosphorylation of SSTR2 | still maintain their morphology | 43.4 | 55.2 | 74.1 | 81.0 | rank as SSTR2-tGFP internalization inducer [7]: most potent internalization inducer
 | NCCCC[C@@H]1NC(=O)[C@@H](Cc2c[nH]c3ccccc23)NC(=O)[C@H](c2ccccc2)NC(=O)[C@@H]2C[C@@H](OC(=O)NCCN)CN2C(=O)[C@H](Cc2ccccc2)NC(=O)[C@H](Cc2ccc(OCc3ccccc3)cc2)NC1=O [Pasireotide, reference compound] (cyclo([Hyp]([CO-Ethylenediamine])[Phg][dW]KY(Bn)F)) | selective phosphorylation of S341/S343 | still maintain their morphology | 41.6 | 46.3 | 49.2 | 50.5 | EC50 [8]: 0.06 ± 0.0163 µM; EC50 [9]: 0.0165 ± 0.0025 µM; EC50 [10]: 0.063 ± 0.0075 µM; Mean of internalized fluorescence, SSTR5 ([11]; 1 μM): 40.5 AU; Mean of internalized fluorescence, SSTR5 ([11]; 10 μM): 43.9 AU; replacement of agonists [12]: fully replace agonists; phosphorylation of SSTR5 (pT333) [13]: more potent than ITF2984 and octreotide; patients reaching a tumor size reduction at least 20% [14]: 16.7%; phosphorylation of SSTR3 (pS337/pT341, pT348) [15]: weak effect; antitumor activity in the MENX model (published report) [16]: higher antitumor activity than Octreotide

From patent US20250057913A1, “USE OF SOMATOSTATIN AGONIST IN THE TREATMENT OF SSTR3 EXPRESSING TUMORS” (ITALFARMACO SPA, priority 2021, published 2025)
